Assays:
[1] = test system: ABUTH (Velvetleaf); assay: Postemergence herbicidal evaluation; assay type: in vivo, Abutilon theophrasti
Outline: (§1)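 Herbicidal effect was judged by eye on a 0–9 scale covering stand, vigor, deformity, size and chlorosis, compared with controls, four to five weeks after seedlings about two weeks old were sprayed (40 psi, ~0.0156–0.500 kg/ha).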

[2] = test system: AMBEL (Ragweed, Common); assay: Postemergence herbicidal evaluation; assay type: in vivo, Ambrosia artemisifolia
Outline: as §1

[3] = test system: ECHCG (Barnyardgrass); assay: Postemergence herbicidal evaluation; assay type: in vivo, Echinochloa crus-galli
Outline: as §1

[4] = test system: SETVI (Foxtail, Green); assay: Postemergence herbicidal evaluation; assay type: in vivo, Setaria viridis
Outline: as §1

[5] = test system: GLXMAW (Soybean, Williams); assay: Postemergence herbicidal evaluation; assay type: in vivo, Glycine max, (L.) Merr. cv Williams
Outline: as §1

[6] = test system: ORYSAT (Rice, Tebonnet); assay: Postemergence herbicidal evaluation; assay type: in vivo, Oryza sativa, (L.) Tebonnet
Outline: as §1

[7] = test system: TRZAWR (Wheat, Winter, cv Riband); assay: Postemergence herbicidal evaluation; assay type: in vivo, Triticum aestivum
Outline: as §1

[8] = test system: ABUTH (Velvetleaf); assay: Preemergence herbicidal evaluation; assay type: in vivo, Abutilon theophrasti; settings: rated 4-5 weeks after treatment
Outline: (§2)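 Test compound, dissolved in aqueous acetone, was sprayed over planted soil cups at an equivalent of about 0.0156 to 0.500 kg/ha; seeds had been mixed with potting soil. Greenhouse growth followed, with visual 0-9 scoring of injury at four to five weeks.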

[9] = test system: CASOB (Sicklepod); assay: Preemergence herbicidal evaluation; assay type: in vivo, Cassia obtusifolia; settings: rated 4-5 weeks after treatment
Outline: as §2

[10] = test system: SETVI (Foxtail, Green); assay: Preemergence herbicidal evaluation; assay type: in vivo, Setaria viridis; settings: rated 4-5 weeks after treatment
Outline: as §2

[11] = test system: MOOVA (Monochoria); assay: Preemergence weed control under flooded paddy conditions; assay type: in vivo, Monochoria vaginalis; settings: rated 3-4 weeks after treatment
Outline: (§3)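 Silt loam, seeds in top 0.5 cm; flood held 1.5-3 cm; test cpd as acetone/water 50/50 into flood water, ~0.0313-0.500 kg/ha a.i.; greenhouse 3-4 wk; visual 0-9 score vs control.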

[12] = test system: SAGPY (Arrowhead (Pygmaea)); assay: as above; assay type: in vivo, Sagittaria pygmaea; settings: rated 3-4 weeks after treatment
Outline: as §3

[13] = test system: CYPIR (Rice Flatsedge); assay: Postemergence weed control under flooded paddy conditions; assay type: in vivo, Cyperus iria; settings: postemergence weeds, rated 3 to 4 weeks after treatment
Outline: (§4)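 Flood-water application, about 0.0313–0.500 kg/ha a.i. in aqueous/acetone 50/50 v/v; water depth 1.5–3 cm throughout. Weeds 3–5 cm, rice 1.5–2.5 leaf. Greenhouse; 0–9 visual rating vs control at 3–4 wk.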

[14] = test system: SAGPY (Arrowhead (Pygmaea)); assay: as above; assay type: in vivo, Sagittaria pygmaea; settings: postemergence weeds, rated 3 to 4 weeks after treatment
Outline: as §4

## C=CCN1C(=O)C(CC(=O)O)SC1=Nc1cc(-n2c(=O)cc(C(F)(F)F)n(C)c2=O)c(F)cc1Cl (stereo not shown) [Compound 62, 3-Allyl-2-{{2-chloro-5-[3,6-dihydro-3-methyl-2,6-dioxo-4-(trifluoromethyl)-1(2H)-pyrimidinyl]-4-fluorophenyl}imino}-4-oxo-5-thiazolidineacetic acid]
[1]; Rate 0.0158 kg/ha
  Postemergence herbicidal rating ABUTH: 9.0
[1]; Rate 0.0315 kg/ha
  Postemergence herbicidal rating ABUTH: 9.0
[1]; Rate 0.0630 kg/ha
  Postemergence herbicidal rating ABUTH: 9.0
[2]; Rate 0.0158 kg/ha
  Postemergence herbicidal rating AMBEL: 9.0
[2]; Rate 0.0315 kg/ha
  Postemergence herbicidal rating AMBEL: 7.0
[2]; Rate 0.0630 kg/ha
  Postemergence herbicidal rating AMBEL: 9.0
[3]; Rate 0.0158 kg/ha
  Postemergence herbicidal rating ECHCG: 4.0
[3]; Rate 0.0315 kg/ha
  Postemergence herbicidal rating ECHCG: 6.0
[3]; Rate 0.0630 kg/ha
  Postemergence herbicidal rating ECHCG: 7.0
[4]; Rate 0.0158 kg/ha
  Postemergence herbicidal rating SETVI: 9.0
[4]; Rate 0.0315 kg/ha
  Postemergence herbicidal rating SETVI: 9.0
[4]; Rate 0.0630 kg/ha
  Postemergence herbicidal rating SETVI: 8.0
[5]; Rate 0.0158 kg/ha
  Postemergence herbicidal rating GLXMAW: 7.5
[5]; Rate 0.0315 kg/ha
  Postemergence herbicidal rating GLXMAW: 7.5
[5]; Rate 0.0630 kg/ha
  Postemergence herbicidal rating GLXMAW: 8.5
[6]; Rate 0.0158 kg/ha
  Postemergence herbicidal rating ORYSAT: 4.5
[6]; Rate 0.0315 kg/ha
  Postemergence herbicidal rating ORYSAT: 5.0
[6]; Rate 0.0630 kg/ha
  Postemergence herbicidal rating ORYSAT: 7.0
[7]; Rate 0.0158 kg/ha
  Postemergence herbicidal rating TRZAWR: 5.0
[7]; Rate 0.0315 kg/ha
  Postemergence herbicidal rating TRZAWR: 5.5
[7]; Rate 0.0630 kg/ha
  Postemergence herbicidal rating TRZAWR: 7.0
[8]; rate 0.0156 kg/ha
  Preemergence herbicidal rating ABUTH: 4.0
[8]; rate 0.0313 kg/ha
  Preemergence herbicidal rating ABUTH: 7.0
[8]; rate 0.0625 kg/ha
  Preemergence herbicidal rating ABUTH: 9.0
[8]; rate 0.1250 kg/ha
  Preemergence herbicidal rating ABUTH: 9.0
[8]; rate 0.2500 kg/ha
  Preemergence herbicidal rating ABUTH: 9.0
[9]; rate 0.0156 kg/ha
  Preemergence herbicidal rating CASOB: 0.0
[9]; rate 0.0313 kg/ha
  Preemergence herbicidal rating CASOB: 0.0
[9]; rate 0.0625 kg/ha
  Preemergence herbicidal rating CASOB: 1.0
[9]; rate 0.1250 kg/ha
  Preemergence herbicidal rating CASOB: 1.0
[9]; rate 0.2500 kg/ha
  Preemergence herbicidal rating CASOB: 1.0
[10]; rate 0.0156 kg/ha
  Preemergence herbicidal rating SETVI: 0.0
[10]; rate 0.0313 kg/ha
  Preemergence herbicidal rating SETVI: 0.0
[10]; rate 0.0625 kg/ha
  Preemergence herbicidal rating SETVI: 6.0
[10]; rate 0.1250 kg/ha
  Preemergence herbicidal rating SETVI: 9.0
[10]; rate 0.2500 kg/ha
  Preemergence herbicidal rating SETVI: 9.0
[11]; 0.0313 kg/ha
  MOOVA herbicidal effect rating: 4.0
[11]; 0.0625 kg/ha
  MOOVA herbicidal effect rating: 9.0
[11]; 0.1250 kg/ha
  MOOVA herbicidal effect rating: 9.0
[11]; 0.2500 kg/ha
  MOOVA herbicidal effect rating: 9.0
[12]; 0.0313 kg/ha
  SAGPY herbicidal effect rating: 0.0
[12]; 0.0625 kg/ha
  SAGPY herbicidal effect rating: 0.0
[12]; 0.1250 kg/ha
  SAGPY herbicidal effect rating: 3.0
[12]; 0.2500 kg/ha
  SAGPY herbicidal effect rating: 6.0
[13]; Rate 0.0313 kg/ha
  Herbicidal rating CYPIR: 0.0
[13]; Rate 0.0625 kg/ha
  Herbicidal rating CYPIR: 2.0
[13]; Rate 0.1250 kg/ha
  Herbicidal rating CYPIR: 9.0
[13]; Rate 0.2500 kg/ha
  Herbicidal rating CYPIR: 9.0
[14]; Rate 0.0313 kg/ha
  Herbicidal rating SAGPY: 0.0
[14]; Rate 0.0625 kg/ha
  Herbicidal rating SAGPY: 0.0
[14]; Rate 0.1250 kg/ha
  Herbicidal rating SAGPY: 3.0
[14]; Rate 0.2500 kg/ha
  Herbicidal rating SAGPY: 6.0

Reference: patent US20020137929A1, “1 - (3-heterocyclylphenyl) isothiourea, -isourea, -guanidine and -amidine herbicidal agents” (Intellectual Property Department, BASF Aktiengesellschaft, priority 1998, published 2002)
